From publication PMC11915372, “Identification of a Series Containing a Pentafluorophenyl Moiety That Targets Pks13 to Inhibit Growth of Mycobacterium tuberculosis” (ACS Infectious Diseases, 2025) come the findings set out here.

One data set concerns M. tuberculosis (H37Rv). Nature of the data set: microbe, parasite or virus in culture. It counts as cell-based, Mycobacterium tuberculosis. The note with it: Mycobacterium tuberculosis, H37RV.
Data set [1] is described as follows: physchem. It counts as physicochemical.
Data set [2] is classed as in vitro ADME, mouse. The note with it: for Microsomal Cli: CD1, mouse; for Mouse micro Cl: microsomes.
The format of data set [3] is in vitro ADME, mouse. The note with it: mouse; for Mouse Heps Cl: hepatocytes.
Data set [4] is described as follows: physchem. The note with it: pH 7.4.
In another data set the test system is HepG2 cells. In words: HepG2 cytotoxicity. The following applies: Homo sapiens, HepG2, read-out: HepG2 inhibitory concentration (IC50).
Where [5] appears, read: read-out: Wk2_7H9/DPPC/ casitone/ Tyloxapol MIC.
The mark [6] stands for this setting: read-out: Wk2_ 7H9/DPPC/ cholesterol/BSA/ Tyloxapol MIC.
Where [7] appears, read: read-out: Wk2_7H9/glucose/ BSA/Tyloxapol MIC.
Where [8] appears, read: read-out: Wk2_7H9/glucose/ casitone/ Tyloxapol MIC.
Setting [9] is: pH 7.4, aqueous buffer, kinetic from dmso stock.

≈ marks a conversion by molar mass, not a printed value. Where two headings read alike, the source gives them in different places. Bounds are passed on as bounds.

From the text for HepG2 cells: Assays to establish HepG2 cytotoxicity, in vitro microsomal/hepatocyte metabolic stability, aqueous kinetic solubility, and in vivo pharmacokinetic profiles were all performed as previously described.[15],[35]−[37]

Broadly, the chromatographic logD is lipophilicity estimated from chromatographic retention. A low value points to a more hydrophilic compound. With `CCOC(=O)c1nc(-c2ccccc2)oc1NC(=O)c1c(F)c(F)c(F)c(F)c1F` [Compound 34, CCOC(=O)c1nc(oc1NC(=O)c1c(c(c(c(c1F)F)F)F)F)-c1ccccc1], the MIC in the data set with M. tuberculosis (H37Rv) (read-out: H37Rv MIC A) is 0.8 µM (≈ 0.341 µg/mL); in the data set with M. tuberculosis (H37Rv) (read-out: H37Rv MIC B), 4.7 µM (≈ 2 µg/mL); in the data set with M. tuberculosis (H37Rv) (setting [5]) it was 0.8 µM (≈ 0.341 µg/mL); in the data set on M. tuberculosis (H37Rv) (setting [6]) it was 4.7 µM (≈ 2 µg/mL); in the data set on M. tuberculosis (H37Rv) (setting [7]), 4.7 µM (≈ 2 µg/mL); in the data set on M. tuberculosis (H37Rv) (setting [8]) it was 0.3 µM (≈ 0.128 µg/mL). Besides, the solubility kinetic in the data set “physchem [1]” (setting [9]) and in “physchem [1]” (read-out: Kin. Sol) was 21 µM (≈ 8.95 µg/mL) in each case. Moreover, in data set [2], the “Microsomal Cli” value is recorded as 6.9 mL/min/g. In addition, the “Mouse micro Cl” value in data set [2] is recorded as 6.9 mL/min/g. Also, in data set [3], the “Hepatocyte Cli” value was 10 mL/min/g. Moreover, in data set [3], the “Mouse Heps Cl” value is recorded as 10 mL/min/g. The compound also had a chromatographic logD in the data set “physchem [4]” of 3. Also, the IC50 in the data set on HepG2 cells was 93 µM.
Consider `CCOC(=O)c1nc(CN(C)C)oc1NC(=O)c1c(F)c(F)c(F)c(F)c1F` [Compound 35, CCOC(=O)c1nc(oc1NC(=O)c1c(c(c(c(c1F)F)F)F)F)CN(C)C], for which the MIC in the data set with M. tuberculosis (H37Rv) (read-out: H37Rv MIC A) turned out to be 2.3 µM (≈ 0.937 µg/mL); with M. tuberculosis (H37Rv) (read-out: H37Rv MIC B), 4.7 µM (≈ 1.91 µg/mL); with M. tuberculosis (H37Rv) (setting [5]), 2.3 µM (≈ 0.937 µg/mL); with M. tuberculosis (H37Rv) (setting [6]), 4.7 µM (≈ 1.91 µg/mL); with M. tuberculosis (H37Rv) (setting [7]), 4.7 µM (≈ 1.91 µg/mL); in the data set on M. tuberculosis (H37Rv) (setting [8]), 1.6 µM (≈ 0.652 µg/mL). The solubility kinetic in the data set “physchem [1]” (setting [9]) and in “physchem [1]” (read-out: Kin. Sol) was 225 µM (≈ 91.6 µg/mL) each time. Also, the “Microsomal Cli” value in data set [2] is on record as less than 0.5 mL/min/g. Further, in data set [2], the “Mouse micro Cl” value is given as less than 0.5 mL/min/g. In addition, in data set [3], the “Hepatocyte Cli” value was found to be 4.7 mL/min/g. Besides, in data set [3], the “Mouse Heps Cl” value amounted to 4.7 mL/min/g. The same compound showed a chromatographic logD in “physchem [4]” of 1.3. Besides, the IC50 in the data set on HepG2 cells was more than 100 µM.
As to `Cc1nc(C(=O)OC(C)(C)C)c(NC(=O)c2c(F)c(F)c(F)c(F)c2F)o1` [Compound 36, Cc1nc(c(o1)NC(=O)c1c(c(c(c(c1F)F)F)F)F)C(=O)OC(C)(C)C], the MIC in the data set with M. tuberculosis (H37Rv) (read-out: H37Rv MIC A) stood at 0.1 µM (≈ 0.0392 µg/mL); with M. tuberculosis (H37Rv) (read-out: H37Rv MIC B) it was 0.4 µM (≈ 0.157 µg/mL); with M. tuberculosis (H37Rv) (setting [5]), 0.1 µM (≈ 0.0392 µg/mL); in the data set on M. tuberculosis (H37Rv) (setting [6]) it was 0.4 µM (≈ 0.157 µg/mL); in the data set with M. tuberculosis (H37Rv) (setting [7]) it was 0.3 µM (≈ 0.118 µg/mL); in the data set with M. tuberculosis (H37Rv) (setting [8]), 0.1 µM (≈ 0.0392 µg/mL). In addition, the solubility kinetic in “physchem [1]” (setting [9]) and in “physchem [1]” (read-out: Kin. Sol) was 127 µM (≈ 49.8 µg/mL) each time. Further, in data set [2], the “Microsomal Cli” value is given as 1.1 mL/min/g. Also, the “Mouse micro Cl” value in data set [2] came out at 1.1 mL/min/g. Further, the “Hepatocyte Cli” value in data set [3] was determined as 26 mL/min/g. The “Mouse Heps Cl” value in data set [3] is reported as 26 mL/min/g. In addition, in the data set “physchem [4]”, the chromatographic logD turned out to be 2.8. In the data set on HepG2 cells, the IC50 is more than 100 µM.
For `Cc1ncc(NC(=O)c2c(F)c(F)c(F)c(F)c2F)o1` [Compound 37, Cc1ncc(o1)NC(=O)c1c(c(c(c(c1F)F)F)F)F], the MIC in the data set on M. tuberculosis (H37Rv) (read-out: H37Rv MIC A), in the data set on M. tuberculosis (H37Rv) (read-out: H37Rv MIC B), with M. tuberculosis (H37Rv) (setting [5]), with M. tuberculosis (H37Rv) (setting [6]), in the data set on M. tuberculosis (H37Rv) (setting [7]) and with M. tuberculosis (H37Rv) (setting [8]) was more than 50 µM in each case. In addition, the solubility kinetic in the data set “physchem [1]” (setting [9]) and in “physchem [1]” (read-out: Kin. Sol) was 105 µM (≈ 30.7 µg/mL) each time. The “Microsomal Cli” value in data set [2] is less than 0.5 mL/min/g. For the same compound, the “Mouse micro Cl” value in data set [2] is recorded as less than 0.5 mL/min/g. Moreover, the “Hepatocyte Cli” value in data set [3] was 5.8 mL/min/g. The “Mouse Heps Cl” value in data set [3] came out at 5.8 mL/min/g. Besides, the chromatographic logD in “physchem [4]” is 1.9. The IC50 in the data set on HepG2 cells is more than 100 µM.
On to `Cc1nc(C(=O)O)c(NC(=O)c2c(F)c(F)c(F)c(F)c2F)o1` [Compound 38, Cc1nc(c(o1)NC(=O)c1c(c(c(c(c1F)F)F)F)F)C(=O)O], for which the MIC was more than 50 µM in the data set on M. tuberculosis (H37Rv) (read-out: H37Rv MIC A); more than 50 µM in the data set on M. tuberculosis (H37Rv) (read-out: H37Rv MIC B); 5.4 µM (≈ 1.82 µg/mL) with M. tuberculosis (H37Rv) (setting [5]); more than 50 µM in the data set on M. tuberculosis (H37Rv) (setting [6]); 43 µM (≈ 14.5 µg/mL) in the data set with M. tuberculosis (H37Rv) (setting [7]); 7.7 µM (≈ 2.59 µg/mL) with M. tuberculosis (H37Rv) (setting [8]). In addition, the solubility kinetic in the data set “physchem [1]” (setting [9]) and in “physchem [1]” (read-out: Kin. Sol) was 250 µM (≈ 84 µg/mL) in each case. For the same compound, the “Microsomal Cli” value in data set [2] is less than 0.5 mL/min/g. In data set [2], the “Mouse micro Cl” value is less than 0.5 mL/min/g. Moreover, the “Hepatocyte Cli” value in data set [3] came out at 1.3 mL/min/g. In addition, the “Mouse Heps Cl” value in data set [3] was 1.3 mL/min/g. Also, in “physchem [4]”, the chromatographic logD amounted to 0.78. The IC50 in the data set with HepG2 cells is more than 100 µM.
On to `CC(=O)c1nc(C)oc1NC(=O)c1c(F)c(F)c(F)c(F)c1F` [Compound 39, CC(=O)c1nc(oc1NC(=O)c1c(c(c(c(c1F)F)F)F)F)C], for which the MIC was found to be 1.2 µM (≈ 0.401 µg/mL) in the data set on M. tuberculosis (H37Rv) (read-out: H37Rv MIC A); 3.1 µM (≈ 1.04 µg/mL) in the data set on M. tuberculosis (H37Rv) (read-out: H37Rv MIC B); 1.2 µM (≈ 0.401 µg/mL) in the data set on M. tuberculosis (H37Rv) (setting [5]); 3.1 µM (≈ 1.04 µg/mL) with M. tuberculosis (H37Rv) (setting [6]); 3.1 µM (≈ 1.04 µg/mL) in the data set on M. tuberculosis (H37Rv) (setting [7]); 1.2 µM (≈ 0.401 µg/mL) in the data set with M. tuberculosis (H37Rv) (setting [8]). For the same compound, the solubility kinetic in the data set “physchem [1]” (setting [9]) and in the data set “physchem [1]” (read-out: Kin. Sol) was 241 µM (≈ 80.5 µg/mL) each time. For the same compound, the “Microsomal Cli” value in data set [2] is reported as less than 0.5 mL/min/g. In data set [2], the “Mouse micro Cl” value was less than 0.5 mL/min/g. Also, in data set [3], the “Hepatocyte Cli” value worked out at 8.6 mL/min/g. Also, in data set [3], the “Mouse Heps Cl” value came to 8.6 mL/min/g. In “physchem [4]”, this compound registered a chromatographic logD of 1.2. Also, the IC50 in the data set on HepG2 cells was more than 100 µM.
